What was measured:
Format in all cases: in vivo, mice
[1] = Weights of immune-related organs (spleen, thymus) after 30-day feeding; settings: for Spleen Weight change / Thymus Weight change: mice, n=10, 30 days
Protocol: (§1) Female mice (Kuengming, China) weighing 18-22 g were used. The animals were housed in individual stainless steel cages in an air-conditioned room under a 12:12 hour light:dark cycle. A commercial pellet diet and water were provided throughout the experiment. All procedures were conducted in accordance with the P.R. China legislation under No. 8910M047 on the use and care of laboratory animals.
(§2) For each study, forty mice were divided into 4 groups with 10 mice per group (n=10). These four groups were control, theaflavin (low), theaflavin (mid), and theaflavin (high). The latter three were theaflavin-treated groups in which theaflavin (capsule, Xiayie™, prepared according to the method described in U.S. Pat. […] Water was fed for the control group. For the organ weight study, animals were sacrificed after the 30-day study, followed by collecting spleens and thymus for weight measurement. For the other studies, animals were harvested for further analyses as described below. Statistical differences between groups were calculated using SPSS 11.0 with student t test plus Dunnett method.

[2] = Mouse body weight after 30-day theaflavin feeding; settings: for BW change: mice, n=10, 30 days
Protocol: as §1, §2

[3] = test system: Sheep red blood cell (SRBC); assay: Mouse plasma hemolysin assay; settings: for Antibody integrand: plasma on day 5 after SRBC injection, n=10
Protocol: For each study, forty mice were divided into 4 groups with 10 mice per group (n=10). These four groups were control, theaflavin (low), theaflavin (mid), and theaflavin (high). The latter three were theaflavin-treated groups in which theaflavin (capsule, Xiayie™, prepared according to the method described in U.S. Pat. No. 8,282,970) was fed to mice at a dose of 83 mg, 250 mg, and 500 mg per kg body weight per day for 30 days for the low, mid, and high group, respectively. Water was fed for the control group. For the organ weight study, animals were sacrificed after the 30-day study, followed by collecting spleens and thymus for weight measurement. For the other studies, animals were harvested for further analyses as described below. Statistical differences between groups were calculated using SPSS 11.0 with student t test plus Dunnett method.
Each mouse was given a single injection of 0.2 ml of 2% SRBC from the above-described preparation. On day 5 after the SRBC injection, the plasma was collected by centrifuging the mouse eye blood at 2000 r/min for 10 min, then was stored into a sterile tube. With a micro hemagglutinin-assay plate, the plasma was diluted to a series of concentrations, then […] of 0.5% SRBC suspension was added. The contents were is mixed by vortexing and incubated for 3 h in a 37° C., 5% CO2 incubator, after which the hemagglutination was observed under microscope. The data were presented as antibody integrand.

[4] = test system: Delayed-type hypersensitivity (DTH) induced by sheep red blood cell (SRBC); assay: Mouse footpad swelling assay (DTH); settings: for Footpad swelling: 24 hours after second SRBC injection, n=10
Protocol: For each study, forty mice were divided into 4 groups with 10 mice per group (n=10). These four groups were control, theaflavin (low), theaflavin (mid), and theaflavin (high). The latter three were theaflavin-treated groups in which theaflavin (capsule, Xiayie™, prepared according to the method described in U.S. Pat. […] […] […] […] Statistical differences between groups were calculated using SPSS 11.0 with student t test plus Dunnett method.
Delayed-type hypersensitivity (DTH) is an immune reaction induced by antigen. In the mice footpads at which DTH was elicited, transient swellings which usually peaked at 24-48 hours after the antigen challenge was observed. This assay of measuring footpad swelling of mice caused by a DTH reaction was used to test effects of theaflavin is on immune responses.
The Sheep red blood cell (SRBC) was taken from sheep and washed triple with physiological saline, centrifugated at 1500 g for 10 min, and adjusted to a final concentration of 2%. Each mouse was given a single injection of 0.2 ml of prepared 2% SRBC. On day 4 after the SRBC injection, each mouse was given an […] injection (the second injection) of 0.02 ml of prepared 20% SRBC. Mouse footpad thicknesses were measured before and 24 hours after the second injection. Mouse footpad swelling values were calculated from the difference between these two measurements.

[5] = theaflavin treatment for 30 days, compared to control

With `O=c1c(O)cc([C@H]2Oc3cc(O)cc(O)c3C[C@H]2O)cc2c([C@H]3Oc4cc(O)cc(O)c4C[C@H]3O)cc(O)c(O)c12` [Theaflavin, theaflavin] the “Spleen Weight change” value ([1]; 167 mg/kg.BW (Low)) was 0.47 ± 0.13%, the “Thymus Weight change” value ([1]; 167 mg/kg.BW (Low)) was 0.42 ± 0.07% and the “Spleen Weight change” value ([1]; 333 mg/kg.BW (Mid)) was 0.46 ± 0.10%. For the same compound, the “Thymus Weight change” value ([1]; 333 mg/kg.BW (Mid)) was 0.43 ± 0.12%, the “Spleen Weight change” value ([1]; 500 mg/kg.BW (High)) was 0.45 ± 0.07% and the “Thymus Weight change” value ([1]; 500 mg/kg.BW (High)) was 0.42 ± 0.11%. For the same compound, the “effect on weights of immune system related organs, i.e., spleen and thymus” value [1, 5] was “no effect”, the BW change ([2]; study I, 167 mg/kg.BW (Low)) was 12.70 ± 0.82 g and the BW change ([2]; study I, 333 mg/kg.BW (Mid)) was 12.80 ± 0.79 g. The BW change ([2]; study I, 500 mg/kg.BW (High)) was 12.50 ± 0.71 g, the BW change ([2]; study II, 167 mg/kg.BW (Low)) was 12.00 ± 0.67 g and the BW change ([2]; study II, 333 mg/kg.BW (Mid)) was 11.80 ± 0.63 g. It also gave a BW change ([2]; study II, 500 mg/kg.BW (High)) of 12.70 ± 0.92 g, a BW change ([2]; study III, 167 mg/kg.BW (Low)) of 11.90 ± 0.88 g and a BW change ([2]; study III, 333 mg/kg.BW (Mid)) of 12.80 ± 0.63 g. The BW change ([2]; study III, 500 mg/kg.BW (High)) was 11.90 ± 0.57 g, the BW change ([2]; study IV, 167 mg/kg.BW (Low)) was 13.00 ± 0.94 g and the BW change ([2]; study IV, 333 mg/kg.BW (Mid)) was 11.90 ± 0.77 g. The BW change ([2]; study IV, 500 mg/kg.BW (High)) was 12.00 ± 0.47 g, the “effect on mice body weights” value [2, 5] was “no effect” and the Antibody integrand ([3]; 167 mg/kg.BW (Low)) was 143.80 ± 35.23. For the same compound, the Antibody integrand ([3]; 333 mg/kg.BW (Mid)) was 123.20 ± 20.37, the Antibody integrand ([3]; 500 mg/kg.BW (High)) was 146.40 ± 26.46 and the “mouse plasma hemolysin assay result compared to control” value ([3]; theaflavin low and high groups) was “statistically significant results”. It also gave a Footpad swelling ([4]; 167 mg/kg.BW (Low)) of 1.46 ± 0.39 mm, a Footpad swelling ([4]; 333 mg/kg.BW (Mid)) of 1.24 ± 0.24 mm and a Footpad swelling ([4]; 500 mg/kg.BW (High)) of 1.53 ± 0.49 mm. The “mouse footpad swelling compared to control” value ([4]; theaflavin low and high groups) was “statistically significant mouse footpad swelling”.
